From patent US20110098314A1, “STATINS FOR THE TREATMENT OF OCULAR HYPERTENSION AND GLAUCOMA” (ALCON, INC., priority 2005, published 2011)

Tests used:
intraocular pressure [1] = assay: Acute IOP response in lasered (hypertensive) eyes of conscious cynomolgus monkeys; format: in vivo, cynomolgus monkey; settings: single topical ocular application of 300 μg; IOP at 1, 3 and 6 hours
Procedure: Acute IOP Response in Lasered (Hypertensive) Eyes of Conscious Cynomolgus Monkeys.
Intraocular pressure (IOP) was determined with an Alcon Pneumatonometer after light corneal anesthesia with 0.1% proparacaine. Eyes were washed with saline after each measurement. After a baseline IOP measurement, the test compound was instilled in one 30 μL aliquot to the right eyes only of nine cynomolgus monkeys. The vehicle was instilled in the right eyes of six additional animals. Subsequent IOP measurements were taken at 1, 3, and 6 hours.

[2] = Penetration of the cornea following topical ocular administration; format: in vivo
Description: The use of topical ocular administration is therefore strongly preferred in the present invention.

[3] = system: CTGF gene expression in cultured human trabecular meshwork (TM) cells; assay: Inhibition of TGFβ2 stimulated CTGF gene expression (QPCR, CTGF/18S cDNA); format: cell-based
Procedure: FIGS. 1-3 are graphs setting forth the effects of statins on basal and TGFβ2-induced CTGF gene expression in cultured human trabecular meshwork cells.
The effectiveness of statins on CTGF gene expression in cultured human trabecular meshwork (TM) cells was studied. In these experiments, the CTGF/18S cDNA levels were measured by quantitative reverse-transcription PCR (QPCR) and compared.

intraocular pressure [4] = assay: IOP response in lasered (hypertensive) eyes of conscious cynomolgus monkeys following repeated dosing; format: in vivo, cynomolgus monkey
Procedure: Response in Lasered (Hypertensive) Eyes of Conscious Cynomolgus Monkeys Following Repeated Dosing.
In a further study, the intraocular pressure-lowering efficacy of lovastatin was measured in conscious ocular hypertensive monkeys using a five-dose, three-day study design. The test item was administered in one 30 μL aliquot to the lasered (unilateral laser trabeculoplasty) eye of eight animals. The vehicle was instilled in the lasered eyes of six additional animals as a control. Doses 1, 3, and 5 were instilled at 0900 hours on three consecutive days; doses 2 and 4 at 1630 hours on days 1 and 2. IOP was measured at 1, 3 and 6 hours after doses 1 and 5. IOP was also measured at 16 hours after dose 4. The percent change from time 0 baseline was determined for each animal for every IOP measurement.
There was an average reduction in IOP of 12.5% in the control group. In a subsequent study, wherein nine doses of lovastatin were administered over a five day period, IOP was reduced by up to 7.4%.

intraocular pressure [5] = settings: administered orally for at least one year; cited from earlier work
GTM-3 cells = assay: GTM-3 cell viability (neutral red uptake); format: cell-based, human; settings: 24 h, FIG. 5
Procedure: (§1) FIG. 5 depicts bar graphs showing the effect of lovastatin on GTM-3 cell fibronectin secretion and viability. Transformed human trabecular meshwork (GTM-3) cells were incubated in the presence or absence of test agents in serum-free DMEM media for 24 h (37° C., 5% CO2). Cell supernatants were then assayed for fibronectin content by ELISA and cell monolayers were assayed for viability by neutral red uptake.
(§2) The effect of lovastatin on both basal (vehicle) and stimulated (TGF32) GTM-3 (a transformed human TM cell strain) secretion of fibronectin was tested. GTM-3 cells were incubated in the presence or absence of test agents in serum-free media for 24 h (37° C., 5% CO2), then changes in secreted fibronectin levels were determined by ELISA of cell supernatants. Neutral red uptake assays were performed on the remaining cell monolayers, in order to determine the effect of test agents on GTM-3 cell viability. […] Thus, by virtue of the ability to reduce the excessive accumulation of extracellular matrix (e.g. fibronectin), statins are useful in the treatment of glaucoma and to control or lower IOP.

[6] = system: fibronectin secretion by GTM-3 cells; assay: Inhibition of TM fibronectin secretion (ELISA of cell supernatants); format: cell-based, human; settings: 24 h, FIG. 5
Procedure: as §1, §2

[7] = 1 hour after fifth topical ocular instillation of 300 μg
[8] = 3 hours after fifth topical ocular instillation of 300 μg
[9] = 6 hours after fifth topical ocular instillation of 300 μg

Compound | IOP lowering after single topical ocular application (intraocular pressure [1]) | ability to reach intraocular tissues via penetration of the cornea [2] | CTGF gene expression by cultured human TM cells [3] | change in intraocular pressure in patients (intraocular pressure [5]) | also measured
CC(C)c1c(C(=O)Nc2ccccc2)c(-c2ccccc2)c(-c2ccc(F)cc2)n1CC[C@@H](O)C[C@@H](O)CC(=O)O (relative stereo) [atorvastatin, (βR,δR)-2-(4-fluorophenyl)-β,δ-dihydroxy-5-(1-methylethyl)-3-phenyl-4-[(phenylamino)carbonyl]-1H-Pyrrole-1-heptanoic acid] | did not significantly lower IOP | do not readily penetrate the cornea | – | – | –
CC(C)n1c(/C=C/[C@@H](O)C[C@@H](O)CC(=O)O)c(-c2ccc(F)cc2)c2ccccc21 (relative stereo) [fluvastatin, (3R,5S,6E)-rel-7-[3-(4-fluorophenyl)-1-(1-methylethyl)-1H-indol-2-yl]-3,5-dihydroxy-6-heptenoic acid] | did not significantly lower IOP | – | – | – | –
CC[C@H](C)C(=O)O[C@H]1C[C@H](O)C=C2C=C[C@H](C)[C@H](CC[C@@H](O)CC(O)CC(=O)O)[C@H]21 (stereo in doubt) [pravastatin, (βR,δR,1S,2S,6S,8S,8aR)-1,2,6,7,8,8a-hexahydro-β,δ,6-trihydroxy-2-methyl-8-[(2S)-2-methyl-1-oxobutoxy]-1-naphthaleneheptanoic acid] | did not significantly lower IOP | able to reach intraocular tissues via penetration of the cornea | – | – | –
CC[C@H](C)C(=O)O[C@H]1C[C@@H](C)C=C2C=C[C@H](C)[C@H](CC[C@@H]3C[C@@H](O)CC(=O)O3)[C@H]21 [lovastatin, 2(S)-2-methyl-butanoic acid (1S,3R,7S,8S,8aR)-1,2,3,7,8,8a-hexahydro-3,7-dimethyl-8-[2-[(2R,4R)-tetrahydro-4-hydroxy-6-oxo-2H-pyran-2-yl]ethyl]-1-naphthalenyl ester] | did not significantly lower IOP | – | significantly reduce | no clinically significant change in intraocular pressure | IC50 ([3]; dose-dependent, FIG. 3): 75 nM; average IOP lowering (intraocular pressure [4]; [7]): 8.3 mmHg; average IOP lowering, percent change from baseline (intraocular pressure [4]; [7]): 22.8%; average IOP lowering (intraocular pressure [4]; [8]): 8.1 mmHg; average IOP lowering, percent change from baseline (intraocular pressure [4]; [8]): 21.5%; average IOP lowering (intraocular pressure [4]; [9]): 9.5 mmHg; average IOP lowering, percent change from baseline (intraocular pressure [4]; [9]): 25.5%; IOP reduction (intraocular pressure [4]; subsequent study, nine doses over a five day period): up to 7.4%; GTM-3 cell viability (GTM-3 cells): without affecting cell viability; TGFβ2-stimulated fibronectin secretion ([6]; serum-free media): suppressed; basal fibronectin secretion ([6]; vehicle (basal)): suppression
CC[C@H](C)C(=O)O[C@H]1CCC=C2C=C[C@H](C)[C@H](CC[C@@H]3C[C@@H](O)CC(=O)O3)[C@H]21 [mevastatin, (2S)-2-methyl butanoic acid (1S,7S,8S,8aR)-1,2,3,7,8,8a-hexahydro-7-methyl-8-[2-[(2R,4R)-tetrahydro-4-hydroxy-6-oxo-2H-pyran-2-yl]ethyl]-1-naphthalenyl ester] | – | – | significantly reduce | – | –
CCC(C)(C)C(=O)O[C@H]1C[C@@H](C)C=C2C=C[C@H](C)[C@H](CC[C@@H]3C[C@@H](O)CC(=O)O3)[C@H]21 [simvastatin, 2,2-dimethyl-butanoic acid (1S,3R,7S,8S,8aR)-1,2,3,7,8,8a-hexahydro-3,7-dimethyl-8-[2-[(2R,4R)-tetrahydro-4-hydroxy-6-oxo-2H-pyran-2-yl]ethyl]-1-naphthalenyl ester] | – | – | significantly reduce | no clinically significant change in intraocular pressure | –
